Measurements as given in article PMC3141083 (Journal of medicinal chemistry, 2011).

test system: A549, DU-145, KB, HCT-8 cancer cell lines; assay: Cytotoxicity screen, stated over the panel of four cancer cell lines; format: cell-based; details: read-out: GI50 (all tested cancer cell lines)

`COc1ccc2c3c(c4cc(OC)c(OC)cc4c2c1)C[C@H]1CCOCN1C3` [Compound 13, (S)-12-Oxa-cryptopleurine] and `COc1ccc2c3c(c4cc(OC)c(OC)cc4c2c1)C[C@@H]1CCOCN1C3` [Compound 14, (R)-12-Oxa-cryptopleurine] cannot be ordered by GI50: greater than 1000 nM for the first, greater than 1000 nM for the second.

`COc1ccc2c3c(c4cc(OC)c(OC)cc4c2c1)C[C@H]1CCN(c2ccccc2)CN1C3` [Compound 10b] and `COc1ccc2c3c(c4cc(OC)c(OC)cc4c2c1)C[C@H]1CCN(Cc2ccccc2)CN1C3` [Compound 10d] cannot be ordered by GI50: greater than 20000 nM for the first, greater than 20000 nM for the second.

same assay, conditions: read-out: average GI50

`COc1ccc2c3c(c4cc(OC)c(OC)cc4c2c1)C[C@H]1CN(c2ccccc2)CN1C3` [Compound 3f] showed a GI50 greater than 20000 nM.

test system: KB (nasopharyngeal); assay: Cytotoxicity; format: cell-based; details: KB cell line

Compared with `COc1ccc2c3c(c4cc(OC)c(OC)cc4c2c1)C[C@H]1CCOCCN1C3` [Compound 16], `COc1ccc2c3c(c4cc(OC)c(OC)cc4c2c1)C[C@H]1COCCN1C3` [Compound 11, (S)-13-Oxa-cryptopleurine] is 1.8-fold lower in “GI50 KB” value: 68 ± 10 nM for the first, 37 ± 9 nM for the second.

Going from `COc1ccc2c3c(c4cc(OC)c(OC)cc4c2c1)C[C@H]1CCCCCN1C3` [Compound 15] to `COc1ccc2c3c(c4cc(OC)c(OC)cc4c2c1)C[C@H]1CCCCN1C3` [crypto-pleurine, R-cryptopleurine, reference compound], the “GI50 KB” value falls from 102 ± 19 nM to 1.51 ± 0.33 nM (68-fold).

For `COc1ccc2c3c(c4cc(OC)c(OC)cc4c2c1)C[C@H]1CCCN1C3` [R-antofine, reference compound], the “GI50 KB” value was 36 ± 8 nM.
